Measured values: PubChem BioAssay AID2060619 (Molecular Pharmacology Branch, DTP, NCI, 2025)

Tested on: 323965-272-R-J2-PDC complex spheroid viability
Experiment: Anticancer human tumor 323965-272-R-J2-PDC patient-derived pancreatic carcinoma cell line growth inhibition [CLK]
Settings: for IC50: curve of first compound; for viability, T/C: stronger effect = lower value; active = viability on the fitted dose curve at most 10% of control; inactive = the rest
Outline: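 Multi-cell-type spheroids combined patient-derived tumor cells with HUVEC endothelial cells and human mesenchymal stem cells. Paired agents were dosed in half-log steps down from about clinical Cmax, or from 10 microM where Cmax was unknown.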

[1] = second compound 0.0316 µM, first compound 0.0316 µM
[2] = second compound 0.0316 µM, first compound 0.1 µM
[3] = second compound 0.0316 µM, first compound 0.316 µM
[4] = second compound 0.0316 µM, first compound 1 µM
[5] = second compound 0.0316 µM, first compound 3.16 µM
[6] = second compound 0.0316 µM, first compound 10 µM
[7] = second compound 0.1 µM, first compound 0.0316 µM
[8] = second compound 0.1 µM, first compound 0.1 µM
[9] = second compound 0.1 µM, first compound 0.316 µM
[10] = second compound 0.1 µM, first compound 1 µM
[11] = second compound 0.1 µM, first compound 3.16 µM
[12] = second compound 0.1 µM, first compound 10 µM
[13] = second compound 0.316 µM, first compound 0.0316 µM
[14] = second compound 0.316 µM, first compound 0.1 µM
[15] = second compound 0.316 µM, first compound 0.316 µM
[16] = second compound 0.316 µM, first compound 1 µM
[17] = second compound 0.316 µM, first compound 3.16 µM
[18] = second compound 0.316 µM, first compound 10 µM
[19] = second compound 1 µM, first compound 0.0316 µM
[20] = second compound 1 µM, first compound 0.1 µM
[21] = second compound 1 µM, first compound 0.316 µM
[22] = second compound 1 µM, first compound 1 µM
[23] = second compound 1 µM, first compound 3.16 µM
[24] = second compound 1 µM, first compound 10 µM
[25] = second compound 3.16 µM, first compound 0.0316 µM
[26] = second compound 3.16 µM, first compound 0.1 µM
[27] = second compound 3.16 µM, first compound 0.316 µM
[28] = second compound 3.16 µM, first compound 1 µM
[29] = second compound 3.16 µM, first compound 3.16 µM
[30] = second compound 3.16 µM, first compound 10 µM
[31] = second compound 10 µM, first compound 0.0316 µM
[32] = second compound 10 µM, first compound 0.1 µM
[33] = second compound 10 µM, first compound 0.316 µM
[34] = second compound 10 µM, first compound 1 µM
[35] = second compound 10 µM, first compound 3.16 µM
[36] = second compound 10 µM, first compound 10 µM
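Note: spheroids exposed to agents for seven days before readout.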
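Throughout, for viability, T/C: percent of DMSO vehicle control wells so 100% = untreated growth.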

CC(C)CC(NC(=O)C(Cc1ccccc1)NC(=O)c1cnccn1)B(O)O (stereo unspecified) + CNC(=O)c1ccc(Nc2nc(OC3CCCC3)c3c(-c4ccc5nc(C)oc5c4)c[nH]c3n2)c(OC)c1
active: viability, T/C (second compound 0.0316 µM, first compound 0.00949 µM) 3.74% | viability, T/C (second compound 0.0316 µM, first compound 0.03 µM) 0.63% | viability, T/C (second compound 0.0316 µM, first compound 0.0949 µM) 0.4% | viability, T/C (second compound 0.0316 µM, first compound 0.3 µM) 1.5% | viability, T/C (second compound 0.1 µM, first compound 0.00949 µM) 3.57% | viability, T/C (second compound 0.1 µM, first compound 0.03 µM) 0.66% | viability, T/C (second compound 0.1 µM, first compound 0.0949 µM) 0.72% | viability, T/C (second compound 0.1 µM, first compound 0.3 µM) 3.02% | viability, T/C (second compound 0.316 µM, first compound 0.00949 µM) 3.56% | viability, T/C (second compound 0.316 µM, first compound 0.03 µM) 0.65% | viability, T/C (second compound 0.316 µM, first compound 0.0949 µM) 0.61% | viability, T/C (second compound 0.316 µM, first compound 0.3 µM) 0.43% | viability, T/C (second compound 1 µM, first compound 0.00949 µM) 3.86% | viability, T/C (second compound 1 µM, first compound 0.03 µM) 0.86% | viability, T/C (second compound 1 µM, first compound 0.0949 µM) 1.19% | viability, T/C (second compound 1 µM, first compound 0.3 µM) 1.58% | viability, T/C (second compound 3.16 µM, first compound 0.00949 µM) 1.87% | viability, T/C (second compound 3.16 µM, first compound 0.03 µM) 0.28% | viability, T/C (second compound 3.16 µM, first compound 0.0949 µM) 0.73% | viability, T/C (second compound 3.16 µM, first compound 0.3 µM) 1.18% | viability, T/C (second compound 10 µM, first compound 0.00949 µM) 1.13% | viability, T/C (second compound 10 µM, first compound 0.03 µM) 0.33% | viability, T/C (second compound 10 µM, first compound 0.0949 µM) 0.86% | viability, T/C (second compound 10 µM, first compound 0.3 µM) 2.07%
inactive: viability, T/C (second compound 0.0316 µM, first compound 0.000949 µM) 144% | viability, T/C (second compound 0.0316 µM, first compound 0.003 µM) 57.1% | viability, T/C (second compound 0.1 µM, first compound 0.000949 µM) 97.1% | viability, T/C (second compound 0.1 µM, first compound 0.003 µM) 62.7% | viability, T/C (second compound 0.316 µM, first compound 0.000949 µM) 77.6% | viability, T/C (second compound 0.316 µM, first compound 0.003 µM) 51.5% | viability, T/C (second compound 1 µM, first compound 0.000949 µM) 62.9% | viability, T/C (second compound 1 µM, first compound 0.003 µM) 38% | viability, T/C (second compound 3.16 µM, first compound 0.000949 µM) 48.7% | viability, T/C (second compound 3.16 µM, first compound 0.003 µM) 28.7% | viability, T/C (second compound 10 µM, first compound 0.000949 µM) 51.6% | viability, T/C (second compound 10 µM, first compound 0.003 µM) 24.5%
1.72 nM: IC50 (second compound 1 µM)
3.84 nM: IC50 (second compound 0.1 µM)
3.5 nM: IC50 (second compound 0.0316 µM)
3.11 nM: IC50 (second compound 0.316 µM)
1.02 nM: IC50 (second compound 10 µM)
< 0.949 nM: IC50 (second compound 3.16 µM)

CC1(C)CCC(CN2CCN(c3ccc(C(=O)NS(=O)(=O)c4ccc(NCC5CCOCC5)c([N+](=O)[O-])c4)c(Oc4cnc5[nH]ccc5c4)c3)CC2)=C(c2ccc(Cl)cc2)C1 + CNC(=O)c1ccc(Nc2nc(OC3CCCC3)c3c(-c4ccc5nc(C)oc5c4)c[nH]c3n2)c(OC)c1
5550 nM: IC50 (second compound 0.0316 µM)
inactive: viability, T/C [1] 102% | viability, T/C [2] 93.4% | viability, T/C [3] 98.7% | viability, T/C [4] 93% | viability, T/C [5] 89.9% | viability, T/C [7] 87.4% | viability, T/C [8] 94.4% | viability, T/C [9] 78.8% | viability, T/C [10] 80.2% | viability, T/C [11] 65.6% | viability, T/C [13] 67.7% | viability, T/C [14] 69% | viability, T/C [15] 64.7% | viability, T/C [16] 58.7% | viability, T/C [17] 47.3% | viability, T/C [19] 44.1% | viability, T/C [20] 45.9% | viability, T/C [21] 45.2% | viability, T/C [22] 42% | viability, T/C [23] 36.1% | viability, T/C [25] 39.5% | viability, T/C [26] 41.8% | viability, T/C [27] 43.5% | viability, T/C [28] 36.1% | viability, T/C [29] 37% | viability, T/C [30] 7.39% | viability, T/C [31] 36.7% | viability, T/C [32] 36.2% | viability, T/C [33] 41.5% | viability, T/C [34] 33.7% | viability, T/C [35] 32.6% | viability, T/C [36] 8.69%
< 31.6 nM: IC50 (second compound 1 µM) | IC50 (second compound 3.16 µM) | IC50 (second compound 10 µM)
4210 nM: IC50 (second compound 0.1 µM)
2300 nM: IC50 (second compound 0.316 µM)
active: viability, T/C [6] 8.02% | viability, T/C [12] 7.13% | viability, T/C [18] 7.29% | viability, T/C [24] 7.06%

CC1COCCN1c1cc(C2(S(C)(=N)=O)CC2)nc(-c2ccnc3[nH]ccc23)n1 (stereo unspecified) + CNC(=O)c1ccc(Nc2nc(OC3CCCC3)c3c(-c4ccc5nc(C)oc5c4)c[nH]c3n2)c(OC)c1
2100 nM: IC50 (second compound 0.0316 µM)
1180 nM: IC50 (second compound 0.316 µM)
1680 nM: IC50 (second compound 0.1 µM)
< 31.6 nM: IC50 (second compound 1 µM) | IC50 (second compound 3.16 µM) | IC50 (second compound 10 µM)
inactive: viability, T/C [1] 109% | viability, T/C [2] 106% | viability, T/C [3] 90.7% | viability, T/C [4] 70.1% | viability, T/C [5] 38.2% | viability, T/C [6] 25.6% | viability, T/C [7] 94% | viability, T/C [8] 93.8% | viability, T/C [9] 64.2% | viability, T/C [10] 64.2% | viability, T/C [11] 37.8% | viability, T/C [12] 33.9% | viability, T/C [13] 58.5% | viability, T/C [14] 61.5% | viability, T/C [15] 61.2% | viability, T/C [16] 51.1% | viability, T/C [17] 37.4% | viability, T/C [18] 27.7% | viability, T/C [19] 43.4% | viability, T/C [20] 48.9% | viability, T/C [21] 40.7% | viability, T/C [22] 33.8% | viability, T/C [23] 24% | viability, T/C [24] 18.7% | viability, T/C [25] 41.7% | viability, T/C [26] 36.9% | viability, T/C [27] 39.2% | viability, T/C [28] 31.5% | viability, T/C [29] 24.1% | viability, T/C [30] 18.7% | viability, T/C [31] 46.8% | viability, T/C [32] 42.6% | viability, T/C [33] 38.5% | viability, T/C [34] 28.5% | viability, T/C [35] 22% | viability, T/C [36] 16.8%
